# In the supplement of paper PMC11061612:
# Assays:
# Test in all cases: Bliss excess, mean over the matrix (fraction); higher = more synergy
# [1] = test system: MEG-01 (Chronic Myelogenous Leukemia)
# How it was run: (§1)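 Cell lines grown in DMEM/F12 or RPMI with 10% FBS were plated in 1536-well plates and held 24 hours at 37°C, 5% CO2 before 72 hours of exposure to two-drug dose matrices, with DMSO typically at 0.2%. CellTiter-Glo 2.0 luminescence gave viability, which was converted to inhibition. Vehicle wells were set to 0 and blank wells to 1. Combination Emax is the second-highest inhibition in the matrix, and Bliss excess is the observed combination effect minus the expected EA + EB − EA·EB, where EA and EB are the single-agent effects.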
# [2] = test system: KG-1 (Acute Myeloid Leukemia)
# How it was run: as §1
# [3] = test system: SNG-M (Endometrial Carcinoma)
# How it was run: as §1
# [4] = test system: PA-TU-8902 (Pancreatic Carcinoma)
# How it was run: as §1
# HCC38 (Breast Carcinoma) = test system: HCC38 (Breast Carcinoma)
# How it was run: as §1
# [5] = test system: ETK-1 (Biliary Tract Carcinoma)
# How it was run: as §1
# [6] = test system: NOMO-1 (Acute Myeloid Leukemia)
# How it was run: as §1
# [7] = test system: MES-SA (Other Solid Carcinomas)
# How it was run: as §1
# [8] = test system: SK-LMS-1 (Other Solid Carcinomas)
# How it was run: as §1
# [9] = test system: EFM-192A (Breast Carcinoma)
# How it was run: as §1
# [10] = test system: NCI-H1688 (Small Cell Lung Carcinoma)
# How it was run: as §1
# [11] = test system: HOP-92 (Non-Small Cell Lung Carcinoma)
# How it was run: as §1
# MSTO-211H (Mesothelioma) = test system: MSTO-211H (Mesothelioma)
# How it was run: as §1
# MCF7 (Breast Carcinoma) = test system: MCF7 (Breast Carcinoma)
# How it was run: as §1
# [12] = test system: JHH-6 (Hepatocellular Carcinoma)
# How it was run: as §1
# SK-MEL-1 (Melanoma) = test system: SK-MEL-1 (Melanoma)
# How it was run: as §1
# HuO9 (Osteosarcoma) = test system: HuO9 (Osteosarcoma)
# How it was run: as §1
# CS1 (Chondrosarcoma) = test system: CS1 (Chondrosarcoma)
# How it was run: as §1
# [13] = test system: D-283MED (Other Solid Carcinomas)
# How it was run: as §1
compound,measurement,setting,value
"COc1nnc2ccc(N3CCC(c4ccc(OCCN5CCN(C)C(=O)[C@H]5C)cc4)CC3)nn12 [AZD5153] + Cc1c2c(nn1C)CSCc1cc(n(C)n1)CSc1cc(c3ccccc3c1)OCCCc1c(C(=O)O)n(C)c3c-2c(Cl)ccc13 [AZD5991] (first compound max 1 µM, 7x7, partner max 1 µM)",Bliss excess,[1],-0.0104
same,Bliss excess,[2],0.0382
same,Bliss excess,[3],-0.0033
same,Bliss excess,[4],-0.0316
same,Bliss excess,HCC38 (Breast Carcinoma),-0.0019
same,Bliss excess,[5],-0.0436
same,Bliss excess,[6],0.0355
same,Bliss excess,[7],-0.0125
same,Bliss excess,[8],0.0003
same,Bliss excess,[9],-0.0467
same,Bliss excess,[10],0.0155
same,Bliss excess,[11],-0.001
same,Bliss excess,MSTO-211H (Mesothelioma),0.0307
same,Bliss excess,MCF7 (Breast Carcinoma),-0.0003
same,Bliss excess,[12],-0.0727
same,Bliss excess,SK-MEL-1 (Melanoma),-0.0016
same,Bliss excess,HuO9 (Osteosarcoma),0.0377
same,Bliss excess,CS1 (Chondrosarcoma),-0.0342
same,Bliss excess,[13],-0.0409
"COc1nnc2ccc(N3CCC(c4ccc(OCCN5CCN(C)C(=O)[C@H]5C)cc4)CC3)nn12 [AZD5153] + CCN(CCO)CCCOc1ccc2c(Nc3cc(CC(=O)Nc4cccc(F)c4)[nH]n3)ncnc2c1 [AZD2811] (first compound max 1 µM, 7x7, partner max 1 µM)",Bliss excess,[1],-0.047
same,Bliss excess,[2],0.0074
same,Bliss excess,[3],-0.0158
same,Bliss excess,[4],-0.0246
same,Bliss excess,HCC38 (Breast Carcinoma),-0.0398
same,Bliss excess,[5],-0.118
same,Bliss excess,[6],-0.0225
same,Bliss excess,[7],-0.0028
same,Bliss excess,[8],0.0012
same,Bliss excess,[9],-0.0154
same,Bliss excess,[10],0.0116
same,Bliss excess,[11],-0.079
same,Bliss excess,MSTO-211H (Mesothelioma),-0.0182
same,Bliss excess,MCF7 (Breast Carcinoma),-0.0721
same,Bliss excess,[12],-0.0683
same,Bliss excess,SK-MEL-1 (Melanoma),-0.0295
same,Bliss excess,HuO9 (Osteosarcoma),-0.0983
same,Bliss excess,CS1 (Chondrosarcoma),-0.0284
same,Bliss excess,[13],0.001
"COc1cc2ncnc(Nc3ccc(F)c(Cl)c3)c2cc1OCCCN1CCOCC1 [Gefitinib] + CC(C)n1c(=O)n(C)c2cnc3cc(F)c(-c4ccc(OCCCN5CCCCC5)nc4)cc3c21 [AZD1390] (first compound max 10 µM, 7x7, partner max 0.3 µM)",Bliss excess,[1],-0.058
same,Bliss excess,[2],-0.0507
same,Bliss excess,[3],-0.109
same,Bliss excess,[4],-0.0693
same,Bliss excess,HCC38 (Breast Carcinoma),-0.0485
same,Bliss excess,[5],-0.11
same,Bliss excess,[6],-0.0347
same,Bliss excess,[7],-0.0458
same,Bliss excess,[8],-0.0726
same,Bliss excess,[9],-0.0752
same,Bliss excess,[10],-0.0626
same,Bliss excess,[11],-0.0439
same,Bliss excess,MSTO-211H (Mesothelioma),-0.0571
same,Bliss excess,MCF7 (Breast Carcinoma),-0.0395
same,Bliss excess,[12],-0.0603
same,Bliss excess,SK-MEL-1 (Melanoma),0.0081
same,Bliss excess,HuO9 (Osteosarcoma),-0.058
same,Bliss excess,CS1 (Chondrosarcoma),-0.0466
same,Bliss excess,[13],-0.0426
"Cn1cnc2c(F)c(Nc3ccc(Br)cc3Cl)c(C(=O)NOCCO)cc21 [Selumetinib] + CCN(CCO)CCCOc1ccc2c(Nc3cc(CC(=O)Nc4cccc(F)c4)[nH]n3)ncnc2c1 [AZD2811] (first compound max 10 µM, 7x7, partner max 1 µM)",Bliss excess,[1],-0.0001
same,Bliss excess,[2],0.0789
same,Bliss excess,[3],-0.0706
same,Bliss excess,[4],0.0087
same,Bliss excess,HCC38 (Breast Carcinoma),-0.0748
same,Bliss excess,[5],-0.0222
same,Bliss excess,[6],0.0333
same,Bliss excess,[7],-0.0248
same,Bliss excess,[8],-0.0047
same,Bliss excess,[9],-0.0285
same,Bliss excess,[10],-0.0377
same,Bliss excess,[11],-0.0193
same,Bliss excess,MSTO-211H (Mesothelioma),-0.0137
same,Bliss excess,MCF7 (Breast Carcinoma),-0.0309
same,Bliss excess,[12],-0.0305
same,Bliss excess,SK-MEL-1 (Melanoma),0.0031
same,Bliss excess,HuO9 (Osteosarcoma),-0.0201
same,Bliss excess,CS1 (Chondrosarcoma),-0.0043
same,Bliss excess,[13],-0.0022
"CN(C)CCCOc1ccc(-c2ccc3ncc4c(c3c2)n(C2CCOCC2)c(=O)n4C)cn1 [AZD0156] + O=C(c1cc(Cc2n[nH]c(=O)c3ccccc23)ccc1F)N1CCN(C(=O)C2CC2)CC1 [Olaparib] (first compound max 3 µM, partner max 3 µM)",Bliss excess,[1],0.0239
same,Bliss excess,[2],0.0474
same,Bliss excess,[3],-0.0267
same,Bliss excess,[4],-0.0456
same,Bliss excess,HCC38 (Breast Carcinoma),0.0454
same,Bliss excess,[5],-0.0029
same,Bliss excess,[6],0.0887
same,Bliss excess,[7],0.142
same,Bliss excess,[8],0.0373
same,Bliss excess,[9],-0.0026
same,Bliss excess,[10],-0.0122
same,Bliss excess,[11],0.0111
same,Bliss excess,MSTO-211H (Mesothelioma),-0.0685
same,Bliss excess,MCF7 (Breast Carcinoma),0.0509
same,Bliss excess,[12],-0.019
same,Bliss excess,SK-MEL-1 (Melanoma),-0.0491
same,Bliss excess,HuO9 (Osteosarcoma),0.0888
same,Bliss excess,CS1 (Chondrosarcoma),0.0148
same,Bliss excess,[13],0.115
"Cn1cnc2c(F)c(Nc3ccc(Br)cc3Cl)c(C(=O)NOCCO)cc21 [Selumetinib] + CC(C)n1c(=O)n(C)c2cnc3cc(F)c(-c4ccc(OCCCN5CCCCC5)nc4)cc3c21 [AZD1390] (first compound max 10 µM, 7x7, partner max 0.3 µM)",Bliss excess,[1],0.0034
same,Bliss excess,[2],0.0053
same,Bliss excess,[3],-0.0348
same,Bliss excess,[4],0.0043
same,Bliss excess,HCC38 (Breast Carcinoma),-0.0306
same,Bliss excess,[5],-0.0432
same,Bliss excess,[6],-0.0617
same,Bliss excess,[7],-0.0335
same,Bliss excess,[8],-0.0429
same,Bliss excess,[9],-0.0325
same,Bliss excess,[10],-0.016
same,Bliss excess,[11],-0.0112
same,Bliss excess,MSTO-211H (Mesothelioma),-0.0367
same,Bliss excess,MCF7 (Breast Carcinoma),-0.0452
same,Bliss excess,[12],-0.0769
same,Bliss excess,SK-MEL-1 (Melanoma),-0.0378
same,Bliss excess,HuO9 (Osteosarcoma),0.0143
same,Bliss excess,CS1 (Chondrosarcoma),-0.0172
same,Bliss excess,[13],-0.0123
"CC(=O)c1c(C)c2cnc(Nc3ccc(N4CCNCC4)cn3)nc2n(C2CCCC2)c1=O [Palbociclib] + Cn1cnc2c(F)c(Nc3ccc(Br)cc3Cl)c(C(=O)NOCCO)cc21 [Selumetinib] (first compound max 10 µM, 7x7, partner max 10 µM)",Bliss excess,[1],0.0404
same,Bliss excess,[2],-0.0108
same,Bliss excess,[3],-0.117
same,Bliss excess,[4],0.0639
same,Bliss excess,HCC38 (Breast Carcinoma),-0.0291
same,Bliss excess,[5],-0.0351
same,Bliss excess,[6],-0.014
same,Bliss excess,[7],-0.0009
same,Bliss excess,[8],0.0539
same,Bliss excess,[9],-0.0289
same,Bliss excess,[10],-0.0471
same,Bliss excess,[11],0.0142
same,Bliss excess,MSTO-211H (Mesothelioma),-0.0714
same,Bliss excess,MCF7 (Breast Carcinoma),-0.0013
same,Bliss excess,[12],0.0291
same,Bliss excess,SK-MEL-1 (Melanoma),-0.0559
same,Bliss excess,HuO9 (Osteosarcoma),-0.064
same,Bliss excess,CS1 (Chondrosarcoma),0.0219
same,Bliss excess,[13],0.0045
"Cc1nc(-c2cn3c(n2)-c2ccc(-c4cnn(C(C)(C)C(N)=O)c4)cc2OCC3)n(C(C)C)n1 [Taselisib] + O=C(Nc1ccc2[nH]nc(-c3ccncc3)c2c1)[C@@H]1CCN(CC(=O)N2CCN(c3ccc(-c4ncccn4)cc3)CC2)C1 [SCH772984] (first compound max 10 µM, 7x7, partner max 5 µM)",Bliss excess,[1],0.0128
same,Bliss excess,[3],-0.0211
same,Bliss excess,HCC38 (Breast Carcinoma),0.0325
same,Bliss excess,[6],0.141
same,Bliss excess,[8],0.106
same,Bliss excess,MSTO-211H (Mesothelioma),0.131
same,Bliss excess,SK-MEL-1 (Melanoma),0.0839
same,Bliss excess,CS1 (Chondrosarcoma),0.0942
same,Bliss excess,[13],0.061
